Experimental data as given in PubChem BioAssay (NCI).
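In this assay, cells in 96-well plates receive the compound at five concentrations for 48 hours. Endpoints are linearly interpolated between the surrounding concentrations. At the GI50, growth is halved. Definition used: TGI = concentration required for complete inhibition of growth.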

Test system: SN12K1 renal
Assay: NCI anticancer screen, dose series, 48 h

`CC[C@H]1CN2CCc3cc(OC)c(OC)cc3[C@@H]2C[C@@H]1C[C@H]1NCCc2cc(O)c(OC)cc21` was tested, and the GI50 was 25 nM and the TGI was 191 nM.
